Assay results published in ChEMBL document CHEMBL1139792, “Correlation of carboxylic acid pKa to protein binding and antibacterial activity of a novel class of bacterial translation inhibitors” (Bioorg Med Chem Lett, 2007).
Converted amounts (≈) assume the structure as drawn. The source made the active and inactive calls. The calls are words filed in the database; no cut-off is given here.

Key:
Staphylococcus aureus [1] = test: Antibacterial activity against Staphylococcus aureus UC9218; assay type: functional
Staphylococcus aureus [2] = test: Antibacterial activity against Staphylococcus aureus UC9218 in presence of 10% human serum; assay type: functional
Staphylococcus aureus [3] = test: Antibacterial activity against Staphylococcus aureus UC9218 in presence of 5% human serum; assay type: functional
[4] = Acid dissociation constant, pKa by pressure-assisted capillary electrophoresis method; assay type: physicochemical
Albumin [5] = molecular target: T1, Albumin (Homo sapiens, UniProt P02768); test: Displacement of fluorescent dansyl sarcosine from human serum albumin site II on subdomain IIIA
T1 sequence (P02768 whole entry): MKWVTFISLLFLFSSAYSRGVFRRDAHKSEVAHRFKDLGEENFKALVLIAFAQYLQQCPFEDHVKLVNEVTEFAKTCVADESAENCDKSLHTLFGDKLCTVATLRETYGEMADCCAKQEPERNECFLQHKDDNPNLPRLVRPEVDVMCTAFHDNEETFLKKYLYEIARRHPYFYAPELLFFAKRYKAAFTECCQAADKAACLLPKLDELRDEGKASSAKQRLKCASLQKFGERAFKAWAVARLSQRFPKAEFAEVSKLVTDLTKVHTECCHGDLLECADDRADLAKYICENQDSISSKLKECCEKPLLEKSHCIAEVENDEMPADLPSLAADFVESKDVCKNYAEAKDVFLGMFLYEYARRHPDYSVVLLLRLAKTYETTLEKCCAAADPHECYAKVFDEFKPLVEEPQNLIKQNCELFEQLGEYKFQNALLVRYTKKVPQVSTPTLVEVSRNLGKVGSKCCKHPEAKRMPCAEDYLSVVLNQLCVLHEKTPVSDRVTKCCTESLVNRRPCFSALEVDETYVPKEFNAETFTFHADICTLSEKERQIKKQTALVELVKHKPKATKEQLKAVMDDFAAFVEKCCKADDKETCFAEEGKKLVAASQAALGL

Staphylococcus aureus [6] = test: Antibacterial activity against Staphylococcus aureus in mouse bacteremia model; assay type: functional
Albumin [7] = molecular target: T1, Albumin; test: Binding to high affinity site of human serum albumin; assay type: ADME

SMILES	MIC (Staphylococcus aureus [1]) [µg/mL]	MIC (Staphylococcus aureus [2]) [µg/mL]	MIC (Staphylococcus aureus [3]) [µg/mL]	pKa [4]	Kd (Albumin [5]) [µM]	Activity (Staphylococcus aureus [6])	Kd (Albumin [7]) [µM]	ED50 (Staphylococcus aureus [6]) [mg/kg]
N#Cc1ccc(NC(=O)c2cc(SCc3ccccc3)on2)c(C(=O)O)c1	0.125 (≈ 0.329 µM)	4	–	–	–	–	–	–
O=C(Nc1ccc(F)cc1C(=O)O)c1cccc(S(=O)(=O)N2CCOCC2)c1	128 (≈ 313 µM)	–	128	2.92	6.6	–	–	–
COc1ccc(NC(=O)c2cccc(S(=O)(=O)N3CCOCC3)c2)c(C(=O)O)c1	> 128	–	> 128	3.12	8.1	–	–	–
O=C(Nc1ccc(Br)cc1C(=O)O)c1cccc(S(=O)(=O)N2CCOCC2)c1	4 (≈ 8.52 µM)	–	32	2.79	4.8	–	–	–
Cc1ccc(NC(=O)c2cccc(S(=O)(=O)N3CCOCC3)c2)c(C(=O)O)c1	> 128	–	> 128	3.36	7.5	–	–	–
O=C(Nc1ccccc1C(=O)O)c1cccc(S(=O)(=O)N2CCOCC2)c1	> 128	–	> 128	3.18	6	–	–	–
O=C(Nc1ccc(Cl)cc1C(=O)O)c1cccc(S(=O)(=O)N2CCOCC2)c1	4 (≈ 9.41 µM)	–	32	2.81	6.5	–	–	–
O=C(Nc1ccc(Br)cc1C(=O)O)c1ccc(S(=O)(=O)N2CCc3cc(Cl)ccc32)cc1	0.125 (≈ 0.233 µM)	64	–	–	–	–	–	–
N#Cc1ccc(NC(=O)c2ccc(S(=O)(=O)N3CCCC3)cc2)c(C(=O)O)c1	1 (≈ 2.5 µM)	8	–	–	–	inactive	–	–
O=C(Nc1ccc([N+](=O)[O-])cc1C(=O)O)c1cccc(S(=O)(=O)N2CCOCC2)c1	4 (≈ 9.19 µM)	–	16	3.44	4.4	–	–	–
CCCN(CCC)S(=O)(=O)c1ccc(C(=O)Nc2cc3ccccc3cc2C(=O)O)cc1	32 (≈ 70.4 µM)	> 64	–	–	–	–	–	–
N#Cc1ccc(NC(=O)c2ccc(S(=O)(=O)N3CCc4cc(Cl)ccc43)cc2)c(C(=O)O)c1	0.125 (≈ 0.259 µM)	8	–	–	–	inactive	–	–
N#Cc1ccc(NC(=O)c2ccc(S(=O)(=O)N3CCOCC3)cc2)c(C(=O)O)c1	1 (≈ 2.41 µM)	4	2	2.56	5.3	–	14	> 200
